The record followed here is patent publication US8969294B2 (Istituto di Recerche di Biologia Molecolare P. Angeletti …, priority 2008, dated 2015).

The nature of experiment [1]: Body weight of DIO mice after i.p. injection (Example 26). Format: in vivo. As to conditions: 15 or 70 nmol/kg i.p., 7 days. The protocol:
DIO mice were injected intraperitoneally with vehicle only or 15 or 70 nmol/kg of one of the following:
Body weight was measured before injection and at 1, 3, 5, and 7 days post-injection.

Experiment [2] deals with Uncoupling protein I (UCP1). Nature of the experiment: UCP1 levels in brown adipose tissue. The arrangement: species or system mice. As to conditions: mouse, in vivo.
Experiment [3] can be described thus: GLP-1 receptor knock out (GLP-1R−/−) mice on high-fat diet, one month. Format: in vivo.
A short description of experiment [4]: Diet-induced obese C57B6 mice, s.c. Peptide X-PEG / Y-PEG (Examples 45-49). The experiment is classed as in vivo. The protocol: C57BI/6 mice were obtained from Jackson Laboratories and fed a diabetogenic diet from Research Diets, a high sucrose diet with 58% kcal from fat. Mice were single or group-housed on a 12:12-h light-dark cycle at 22° C. with free access to food and water. All studies were approved by and performed according to the guidelines of the Institutional Animal Care and Use Committee of the University of Cincinnati.
Whole body composition (fat and lean mass) was measured using NMR technology (EchoMRI, Houston, Tex.).
Energy intake and expenditure, as well as home-cage activity, were assessed by using a combined indirect calorimetry system (TSE Systems, Bad Homburg, Germany). Oxygen consumption and CO2 production were measured every 45 min for a total of 120 h (including 12 h of adaptation) to determine the respiratory quotient and energy expenditure. Food and water intake and meal patterns were determined continuously for 120 h at the same time as the indirect calorimetry assessments by integration of scales into the sealed cage environment. Meals were defined as food intake events with a minimum duration of 60 s, and a break of 300 s between food intake events. Home-cage locomotor activity was determined using a multidimensional infrared light beam system with beams scanning the bottom and top levels of the cage, and activity being expressed as beam breaks. Stationary motor activity (fidgeting) was defined as consecutive breaks of one single light beam at cage-bottom level, ambulatory movement as breaks of any two different light beams at cage-bottom level, and rearing as simultaneous breaks of light beams on both cage-bottom and the top level.
Blood was collected after a 6-h fast from tail veins using EDTA-coated Microvette tubes (Sarstedt, Nuremberg, Germany) and immediately chilled on ice. After 15 min of centrifugation at 3,000 g and 4° C., plasma was stored at −80° C. Plasma insulin was quantified by a radioimmunoassay from Linco (Sensitive Rat Insulin RIA; Linco Research, St. Charles, Mo.). Plasma TGs and cholesterol levels were measured by enzymatic assay kits (Thermo Electron, Waltham, Mass.). Samples were analyzed individually with the exception that pooled samples (0.25 ml) from 5 animals/group were subjected to fast-performance liquid chromatography (FPLC) gel filtration on two Superose 6 columns connected in series for lipoprotein separation. All assays were performed according to the manufacturer's instructions.
For the determination of glucose tolerance, mice were subjected to 6 h of fasting and injected intraperitoneally (i.p.) with 2 g glucose/kg body wt (50% D-glucose (Sigma) in 0.9% saline) for the glucose tolerance test (GTT). Tail blood glucose levels (mg/dl) were measured by using a hand-held glucometer (TheraSense Freestyle) before (0 min) and at 15, 30, 60, 90, and 120 min after injection.
The 40-kd pegylated peptides Peptides X-PEG and Y-PEG were used as single weekly subcutaneous (s.c) injections in diet-induced obese (D10) C57B6 mice.
Long-term effects of these lower doses on food intake (p=0.95; FIG. 29C) were less impressive than short-term effects with a higher dose (FIG. 27C).

Experiment [5] in a line: Diet-induced obese rats, once-a-week injection, 3-week treatment. Format: in vivo. The conditions noted are these: 70 nmol/kg/week, 3 weeks. The protocol: To determine if the principal phenomenon generalizes across species, both compounds were administered to diet-induced obese rats (mean weight 777.4+/−2.1 g, dose 70 nmol/kg/week, once-a-week injection, 3-week treatment).

In experiment [6] the test system is hormone sensitive lipase (HSL). Description: Western blot of WAT HSL phosphorylation. The experiment is classed as in vivo, mice. The conditions noted are these: one month treatment. The method, then: Adipose tissue was placed in a 1.5-ml microfuge tube and lysed in ice cold RIPA buffer (1×PBS, 1% Nonidet P40, 0.5% sodium doxycholate, 0.1% SDS with 50 mM NaF, […], 0.1 mM Na Vanadate, 20 μg/ml Aprotinin, 10 μg/ml Leupeptin) using a tissue lyser (Retsch, Inc Newtown, Pa. Cat. #85210) at 30 hz for 3 min. Samples were spun at 12,000 rpm for 15 min (4° C.) at which time the internatant was removed to a new tube and sonicated for 15 sec on ice. Samples were spun at 14,000 rpm for 10 min (4° C.) and the internatant was collected to a new tube. Samples were again spun at 19,000 rpm for 10 min (4° C.) and the internatant collected to a new tube. An aliquot of sample was then taken for protein assay. Samples were then boiled in 4×SDS/DTT buffer for 2 min. 50 μg of protein from cell lysate were subjected to SDS/PAGE on 9% (w/v) acrylamide resolving gels and transferred to Hybond ECL nictrocellulose membranes. […] After washing, primary antibody detection was performed using either HRP-conjugated anti-(rabbit IgG) or anti-(mouse IgG) (HRP-conjugated anti-rabbit and anti-mouse secondary antibodies were purchased from Bio-Rad (170-6515 & 170-6516)) and detected using enhanced chemiluminescence (Amersham Biosciences) and exposed to CL-Xposure film (Pierce).
On the technique in general: In western blotting, separated proteins are transferred to a membrane and probed.

Setting [7] is: 70 nmol/kg s.c. Days 0 and 7, Day 9.

Turning to “H(Aib)QGTFTSDYSKYLDEQAAKEFICWLMNT-amide [Peptide X-PEG]”, in experiment [1], the “ability to lower body weight” value is given as “comparable ability to lower body weight”. In addition, in experiment [2], the “Uncoupling protein I (UCP1) levels in brown adipose tissue” value was found to be 2.167±0.429. Besides, in experiment [3], the body weight result is recorded as “caused a reduction of body weight (p>0.05” and the food intake result was “no effect on food intake”. In addition, in experiment [4] (setting [7]), the leptin was determined as 7308 ± 2927 pg/mL and the plasma triglycerides entry is on record as “no significant effect on triglycerides”. Also, in experiment [4] (Day 3), the “blood glucose profile (AUC), i.p. glucose challenge” value stood at 13794±824.1. In experiment [4] (after one month of treatment), the “Plasma C-peptide levels” value was determined as 624.7 pg/mL and the plasma insulin amounted to 1034 pg/mL. The total cholesterol in experiment [4] (chronic s.c. treatment over 27 days) stood at 106.9 mg/dL. Further, the “dose response of body weight and blood glucose” value in experiment [4] (single s.c. 0-350 nmol/kg) was “linearly responsive, dose-dependent decreases in body weight and blood glucose”. In addition, in experiment [4] (weekly s.c. 70 nmol/kg), the Energy expenditure was found to be 17.19±1.49 kcal/[kg*h], the “change in fat mass” value is −52.2% and the respiratory quotient is listed as 0.725±0.01. Further, the “Blood glucose levels, mean decrease” value in experiment [4] (weekly s.c. 70 nmol/kg, from Day 3) is given as −24.5%. Also, the “decrease in body weight” value in experiment [4] (weekly s.c. 70 nmol/kg, one month) stood at 20.1%. Besides, in experiment [5], the “change in body weight” value was −11.15+/−0.88% and the “change in fat mass” value is −19.17+/−2.03%. In addition, in experiment [6], the “phosphorylation of hormone sensitive lipase (HSL) in white adipose tissue” value is reported as 1.135±0.315.
